Results reported in patent publication US20240368174A1, “Antiviral Heterocyclic Compounds” (Enanta Pharmaceuticals, Inc., priority 2023, published 2024).
pEC50: −log10 of the molar value.

Columns and labels:
[1] = test system: HMPV clinical isolate A2 strain TN 94-49; assay: HMPV antiviral assay, Method 2 (LLC-MK2 cells with CP-100-356, ATP-Lite); format: cell-based; details: human metapneumovirus
How it was run: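 EC50 comes from a four-parameter fit of percent cell viability (ATP-Lite, normalized to virus-only and cell-only wells) after 7 days at 37 °C. Infection used HMPV A2 TN 94-49 at MOI 0.16 in LLC-MK2 cells, with 2 μM P-gp inhibitor CP-100-356 and 2 μg/mL TPCK-trypsin final; dose range 200 nM top, 2.5-fold, 10 points, duplicate.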

[2] = test system: genotype A, “Long” strain RSV; assay: RSV-A assay (CPE, ATPlite readout in Hep-2 cells); format: cell-based, Human respiratory syncytial virus; details: human respiratory syncytial virus, activity class
How it was run: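 In this cytopathic-effect protection format, infected Hep-2 cultures (MOI 0.1) are exposed to compound for 5 days. Surviving cell ATP is quantified with ATPlite, and EC50 is determined.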

[3] = hMPV A2 TN/94-49, LLC-MK2 cells with CP-100-356, Method 2
[4] = 168 h, hMPV A2 TN/94-49, LLC-MK2 cells with 4 μM CP-100-356, 7 days, ATP-Lite

Row | pEC50 [1, 3] | pEC50 [2] | pEC50 [1, 4] | Compound
1 | > 6.70 | > 6.70 | – | COc1cc(C(=O)NC[C@](O)(c2cc3c(c(-c4cccc(F)c4Cl)n2)OC[C@]3(C)C(N)=O)C2CC2)cc2cn(C3(F)CC3)nc12 [Example 615]
2 | < 6.70 | < 6.70 | – | COc1cc(C(=O)NC[C@](O)(c2cccc(F)c2)c2cc3c(c(-c4cc(F)cnc4Cl)n2)OC[C@]3(C)C(N)=O)cc2cn(C3(F)CC3)nc12 [Example 404]
3 | > 6.70 | > 6.70 | – | COc1cc(C(=O)NC[C@](O)(c2cc3c(c(-n4ncc5c(F)cccc54)n2)OC[C@]3(C)C(N)=O)C2CC2)cc2cn(C3(F)CC3)nc12 [Example 613]
4 | < 6.70 | > 6.70 | – | COc1cc(C(=O)NC[C@](O)(c2cc3c(c(-c4cc(Cl)c(F)cc4F)n2)OC[C@]3(C)C(N)=O)C2(CF)CC2)cc2cn(C3CC3)nc12 [Example 212]
5 | – | > 6.70 | > 6.70 | COc1cc(C(=O)NC[C@](O)(c2cc3c(c(-c4ccnc(C(F)(F)F)c4Cl)n2)OC[C@]3(C)C(N)=O)C(F)(F)F)cc2cn(C3CC3)nc12 [Example 783]
6 | > 6.70 | > 6.70 | – | COc1cc(C(=O)NC[C@](O)(c2cc3c(c(-c4ccnc(F)c4Cl)n2)OC[C@]3(C)C(N)=O)C2CC2)cc2cn(C3CC3)nc12 [Example 122]
7 | < 6.70 | > 6.70 | – | C[C@]1(C(N)=O)COc2c1cc([C@@](O)(CNC(=O)c1cc(Cl)c3nn(C(F)F)cc3c1)c1ccccc1)nc2-c1cc(Cl)c(F)cc1F [Example 102]
8 | – | > 6.70 | > 6.70 | C[C@]1(C(N)=O)COc2c1cc([C@@](O)(CNC(=O)c1cc(Cl)c3nn(C4CC4)cc3c1)C1(F)CC1)nc2-c1cc(C(F)(F)F)ncc1F [Example 671]
9 | > 6.70 | > 6.70 | – | COc1cc(C(=O)NC[C@](O)(c2cc3c(c(-c4cc(C(F)(F)F)ncc4F)n2)OC[C@]3(C)C(N)=O)C2CC2)cc2cn(C(F)F)nc12 [Example 352]
10 | – | > 6.70 | > 6.70 | COc1cc(C(=O)NC[C@](O)(c2cc3c(c(-n4ncc5c(F)cccc54)n2)OC[C@]3(C)C(N)=O)C2CC2)cc2oc(C3CC3)nc12 [Example 622]
11 | – | > 6.70 | > 6.70 | COc1cc(C(=O)NC[C@](O)(c2cc3c(c(-c4ccnc(C(F)(F)F)c4Cl)n2)OC[C@]3(C)C(N)=O)C2CC2)cc2oc(C3CC3)nc12 [Example 762]
12 | < 6.70 | > 6.70 | – | COc1cc(C(=O)NC[C@@](O)(C#CC(C)(C)O)c2cc3c(c(-c4cc(Cl)c(F)cc4F)n2)OC[C@]3(C)C(N)=O)cc2cn(C3CC3)nc12 [Example 477]
13 | > 6.70 | > 6.70 | – | COC1=CC(C(=O)NC[C@](O)(c2cc3c(c(-c4ccnc(C)c4Cl)n2)OC[C@]3(C)C(N)=O)C2(F)CC2)=CC2OC(C3CC3)=NC12 (some centres unmarked) [Example 526]
14 | > 6.70 | > 6.70 | – | COc1cc(C(=O)NC[C@](O)(c2cc3c(c(-c4cc(F)c(F)cc4F)n2)OC[C@]3(C)C(N)=O)C2CC2)cn2cc(C3CC3)nc12 [Example 116]
15 | > 6.70 | > 6.70 | – | COc1cc(C(=O)NC[C@](O)(c2cc3c(c(-n4ccc5ccccc54)n2)OC[C@]3(C)C(N)=O)C2CC2)cc2cn(C3CC3)nc12 [Example 443]
16 | – | > 6.70 | > 6.70 | COc1cc(C(=O)NC[C@](O)(c2cc3c(c(-n4ccc5c(F)cccc54)n2)OC[C@]3(C)C(N)=O)C2(F)CC2)cc2cn(C(F)F)nc12 [Example 688]
17 | – | > 6.70 | > 6.70 | COc1nccc(-c2nc([C@@](O)(CNC(=O)c3cc(OC)c4nn(C5CC5)cc4c3)C(F)(F)F)cc3c2OC[C@]3(C)C(N)=O)c1Cl [Example 796]
18 | > 6.70 | > 6.70 | – | COc1cc(C(=O)NC[C@](O)(c2cc3c(c(-c4ccc(F)c(Cl)c4Cl)n2)OC[C@]3(C)C(N)=O)C2CC2)cc2oc(C3CC3)nc12 [Example 318]
19 | – | > 6.70 | > 6.70 | COc1cc(C(=O)NC[C@](O)(c2cc3c(c(-n4ccc5c(OC(F)F)cccc54)n2)OC[C@]3(C)C(N)=O)C2CC2)cc2cn(C3CC3)nc12 [Example 864]
